Columns and labels:
[1] = system: DNA; experiment: Fluorescence titration with DNA in PBS buffer; assay type: binding; details: PBS buffer pH=7.4, DNA <25 μg mL^−1
Excerpt: The pyrene segment of the pyrene-based compounds having a pyridinium group of the present invention is thought to play an important role in the interaction of probes made with the pyrene-based compounds having a pyridinium group of the present invention with DNA, as planar aromatic compounds are usually regarded as DNA intercalators. In order to shed some light on the interaction between probes made from the pyrene-based compounds having a pyridinium group of the present invention and DNA, fluorescence spectra were acquired when DNA was added into probes made from the pyrene-based compounds having a pyridinium group of the present invention in a PBS buffer solution (pH=7.4). […] Therefore, the initial fluorescence quenching was attributed to the interaction between probes made from the pyrene-based compounds having a pyridinium group of the present invention and DNA, possibly involving insertion of dye molecules into DNA groves.

[2] = in the presence of DNA in Tris buffer; cited from earlier work
[3] = system: A549 cells; experiment: Long-term imaging ability; assay type: cell-based, human
Description: For the long-term imaging ability assessment aspect of the experiment, a Zeiss LSM 710 fluorescence confocal microscope with identical settings were used for photostability comparisons of the probes (561 nm (15 mW) laser line; Laser power percentage 1.0; Digital zoom=1; Pinhole=1A U; Master Gain=500; Digital offset=0). Different imaging plates with A549 cells were incubated for 30 minutes at […] with probes made using solutions of the pyrene-based compounds having a benzothiazolium group of the present invention as well as with probes made from LysoTracker® Red DND-99. Fluorescence confocal microscopy images were obtained at 30-minute intervals (identical fluorescence microscopy settings were used during the experiments). ImageJ (NIH) software was used to analyze the obtained images and average relative fluorescence intensity was plotted as a function of time.
The lack of cellular pH perturbation, in addition to its low toxicity, raised the possibility of using the pyrene-based compounds having a benzothiazolium group of the present invention for long term lysosome imaging. Thus, A549 cells were treated with a pyrene-based compound having a benzothiazolium group of the present invention (500 nM) over a period of 6 hours, which gave stable fluorescent confocal microscopy images as shown in FIG. 4A. […]

| SMILES | fluorescence change on initial addition of DNA [1] | fluorescence quantum yield ϕfl [2] | cell morphology during long-term imaging ([3]; after 1.5 hours) | average fluorescence intensity vs. staining time ([3]; images every 30 minutes) |
| --- | --- | --- | --- | --- |
| CN(C)CCNc1ccc(O)c2c1C(=O)c1c(O)ccc(NCCN(C)C)c1C2=O [DRAQ5] | partial fluorescence quenching | about 0.003 | – | – |
| CN(C)CCNC(=O)CCc1ccc2n1[B-](F)(F)[N+]1=C(c3ccc[nH]3)C=CC1=C2 [LysoTracker® Red DND-99] | – | – | significant morphological changes and notable cell shrinkage | significant decrease in relative intensity |

From patent US20190345121A1, “PYRENE-BASED COMPOUNDS FOR INTRACELLULAR ORGANELLE IMAGING APPLICATIONS” (priority 2018, published 2019)
